According to patent US20240270762A1, “PENICILLIN-BINDING PROTEIN INHIBITORS” (priority 2021, published 2024):
pIC50: −log10 of the molar value. Converted amounts (≈) assume the structure as drawn.

Legend:
[1] = molecular target: T1, PBP3 from Pseudomonas aeruginosa (PAO1) (Pseudomonas aeruginosa, UniProt G3XD46); assay: Bocillin-FL fluorescence polarization competition binding, P. aeruginosa PBP3; conditions: Binding affinity to P. aeruginosa PBP3; fluorescence polarization competition binding assay using Bocillin-FL; read-out: P. aeruginosa PBP3 Potency
T1 construct: made in house
T1 sequence (G3XD46 whole entry): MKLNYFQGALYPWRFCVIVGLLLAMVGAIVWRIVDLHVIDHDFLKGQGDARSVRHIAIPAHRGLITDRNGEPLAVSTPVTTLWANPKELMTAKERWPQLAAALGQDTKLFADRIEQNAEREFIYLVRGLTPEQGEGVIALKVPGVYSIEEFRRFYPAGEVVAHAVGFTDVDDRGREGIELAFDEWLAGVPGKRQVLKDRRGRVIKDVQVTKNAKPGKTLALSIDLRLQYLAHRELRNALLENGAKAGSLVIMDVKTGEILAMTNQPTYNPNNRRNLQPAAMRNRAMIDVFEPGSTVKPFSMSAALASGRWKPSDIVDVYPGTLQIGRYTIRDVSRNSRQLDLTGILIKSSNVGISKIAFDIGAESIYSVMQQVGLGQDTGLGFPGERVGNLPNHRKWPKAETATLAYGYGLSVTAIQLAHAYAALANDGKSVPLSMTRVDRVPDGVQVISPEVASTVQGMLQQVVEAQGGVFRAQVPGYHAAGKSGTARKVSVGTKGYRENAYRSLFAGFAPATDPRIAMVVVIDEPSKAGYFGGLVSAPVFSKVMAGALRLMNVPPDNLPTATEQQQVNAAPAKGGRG
Procedure, shortened: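 Purified PBP was preincubated with inhibitor (E. coli PBP3 1.5 μM, 30 min; P. aeruginosa PBP3 0.75 μM, A. baumannii PBP3 0.2 μM and PBP1a 1 μM, 15 min), then Bocillin-FL (0.1 μM; 0.05 μM for PBP1a) added and FP read up to 60 min. EC50 = 50% loss of bound probe.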

[2] = system: A. baumannii ATCC 17978; assay: microbe, parasite or virus in culture; type: cell-based; conditions: Acinetobacter baumannii, ATCC17978, read-out: MIC, A. baumannii ATCC 17978
[3] = system: P. aeruginosa ATCC 35151; assay: microbe, parasite or virus in culture; type: cell-based; conditions: Pseudomonas aeruginosa, ATCC35151, read-out: Minimum inhibitory concentration, P. aeruginosa ATCC 35151
[4] = system: P. aeruginosa (ΔmexAB-oprM); assay: Broth microdilution MIC in iron-depleted CAMHB (IDM); type: cell-based; conditions: Pseudomonas aeruginosa; iron-depleted CAMHB (IDM); […]; read-out: Minimum inhibitory concentration, P. aeruginosa ΔmexAB-oprM
[5] = system: P. aeruginosa CDC-0054; assay: microbe, parasite or virus in culture; type: cell-based; conditions: Pseudomonas aeruginosa, CDC0054, read-out: Minimum inhibitory concentration, P. aeruginosa CDC-0054
[6] = system: P. aeruginosa CDC-0090; assay: microbe, parasite or virus in culture; type: cell-based; conditions: Pseudomonas aeruginosa, CDC0090, read-out: Minimum inhibitory concentration, P. aeruginosa CDC-0090
[7] = system: A. baumannii 1258916; assay: microbe, parasite or virus in culture; type: cell-based, Acinetobacter baumannii; conditions: Acinetobacter baumannii, 1258916, read-out: MIC, A. baumannii 1258916
[8] = system: A. baumannii CDC-0033; assay: microbe, parasite or virus in culture; type: cell-based; conditions: Acinetobacter baumannii, CDC0033, read-out: MIC, A. baumannii CDC-0033
[9] = system: A. baumannii CDC-0036; assay: microbe, parasite or virus in culture; type: cell-based; conditions: Acinetobacter baumannii, CDC0036, read-out: MIC, A. baumannii CDC-0036
[10] = system: B. humptydooensis ATCC BAA-2767; assay: microbe, parasite or virus in culture; type: cell-based; conditions: Burkholderia humptydooensis, ATCCBAA2767, read-out: Minimum inhibitory concentration (MIC), B. humptydooensis ATCC BAA-2767

Row | SMILES | pIC50 [1] | MIC [2] | MIC [3] | MIC [4] | MIC [5] | MIC [6] | MIC [7] | MIC [8] | MIC [9] | MIC [10]
1 | O=C(O)c1c(F)ccc2c1OB(O)[C@@H](NC(=O)[C@H](NC(=O)N1CCN(C3CCN(C(=O)c4c(F)ccc(O)c4F)CC3)C1=O)c1cc(F)c(O)c(O)c1Cl)C2 (single isomer, unassigned) [Example 439] | > 5.00 | < 1 µg/mL | < 1 µg/mL | < 1 µg/mL | 2 to 4 µg/mL (≈ 2.52 to 5.04 µM) | < 1 µg/mL | < 1 µg/mL | < 1 µg/mL | < 1 µg/mL | < 1 µg/mL
2 | O=C(O)c1c(F)ccc2c1OB(O)[C@@H](NC(=O)[C@H](NC(=O)N1CCN(C3CCN(C(=O)c4c(F)ccc(O)c4Cl)CC3)C1=O)c1cc(F)c(O)c(O)c1Cl)C2 (single isomer, unassigned) [Example 440] | > 5.00 | < 1 µg/mL | < 1 µg/mL | < 1 µg/mL | < 1 µg/mL | < 1 µg/mL | < 1 µg/mL | < 1 µg/mL | < 1 µg/mL | < 1 µg/mL
3 | O=C(O)c1c(F)ccc2c1OB(O)[C@@H](NC(=O)[C@H](NC(=O)N1CCN(C3CCN(C(=O)c4cc(F)c(F)c(O)c4F)CC3)C1=O)c1cc(F)c(O)c(O)c1Cl)C2 (single isomer, unassigned) [Example 441] | > 5.00 | < 1 µg/mL | < 1 µg/mL | < 1 µg/mL | < 1 µg/mL | < 1 µg/mL | < 1 µg/mL | < 1 µg/mL | < 1 µg/mL | < 1 µg/mL
4 | O=C(O)c1c(F)ccc2c1OB(O)[C@@H](NC(=O)[C@H](NC(=O)N1CCN(C3CCN(C(=O)c4cc(O)cc(O)c4)CC3)C1=O)c1cc(F)c(O)c(O)c1Cl)C2 (single isomer, unassigned) [Example 442] | > 5.00 | < 1 µg/mL | < 1 µg/mL | < 1 µg/mL | < 1 µg/mL | < 1 µg/mL | < 1 µg/mL | < 1 µg/mL | < 1 µg/mL | < 1 µg/mL
5 | O=C(O)c1c(F)ccc2c1OB(O)[C@@H](NC(=O)[C@H](NC(=O)N1CCN(C3CCN(C(=O)c4cc(O)c(F)c(O)c4)CC3)C1=O)c1cc(F)c(O)c(O)c1Cl)C2 (single isomer, unassigned) [Example 443] | > 5.00 | < 1 µg/mL | < 1 µg/mL | < 1 µg/mL | < 1 µg/mL | < 1 µg/mL | < 1 µg/mL | < 1 µg/mL | < 1 µg/mL | < 1 µg/mL
6 | O=C(O)c1c(F)ccc2c1OB(O)[C@@H](NC(=O)[C@H](NC(=O)N1CCN(C3CCN(C(=O)c4cc(O)c(F)c(O)c4F)CC3)C1=O)c1cc(F)c(O)c(O)c1Cl)C2 (single isomer, unassigned) [Example 444] | > 5.00 | < 1 µg/mL | < 1 µg/mL | < 1 µg/mL | < 1 µg/mL | < 1 µg/mL | < 1 µg/mL | < 1 µg/mL | < 1 µg/mL | < 1 µg/mL
7 | O=C(O)c1c(F)ccc2c1OB(O)[C@@H](NC(=O)[C@H](NC(=O)N1CCN(C3CCN(C(=O)Nc4cccc(O)c4F)CC3)C1=O)c1cc(F)c(O)c(O)c1Cl)C2 (single isomer, unassigned) [Example 446] | > 5.00 | < 1 µg/mL | < 1 µg/mL | < 1 µg/mL | < 1 µg/mL | < 1 µg/mL | < 1 µg/mL | < 1 µg/mL | < 1 µg/mL | < 1 µg/mL
8 | O=C(O)c1c(F)ccc2c1OB(O)[C@@H](NC(=O)[C@H](NC(=O)N1CCN(C3CCN(C(=O)Nc4cc(O)ccc4Cl)CC3)C1=O)c1cc(F)c(O)c(O)c1Cl)C2 (single isomer, unassigned) [Example 448] | > 5.00 | < 1 µg/mL | < 1 µg/mL | < 1 µg/mL | < 1 µg/mL | < 1 µg/mL | < 1 µg/mL | < 1 µg/mL | < 1 µg/mL | < 1 µg/mL
9 | O=C(O)c1c(F)ccc2c1OB(O)[C@@H](NC(=O)[C@H](NC(=O)N1CCN(C3CCN(C(=O)Nc4ccc(F)c(O)c4)CC3)C1=O)c1cc(F)c(O)c(O)c1Cl)C2 (single isomer, unassigned) [Example 449] | > 5.00 | < 1 µg/mL | < 1 µg/mL | < 1 µg/mL | < 1 µg/mL | < 1 µg/mL | < 1 µg/mL | < 1 µg/mL | < 1 µg/mL | 2 to 4 µg/mL (≈ 2.53 to 5.06 µM)
10 | O=C(O)c1c(F)ccc2c1OB(O)[C@@H](NC(=O)[C@H](NC(=O)N1CCN(C3CCN(C(=O)Nc4cc(O)cc(F)c4)CC3)C1=O)c1cc(F)c(O)c(O)c1Cl)C2 (single isomer, unassigned) [Example 450] | > 5.00 | < 1 µg/mL | < 1 µg/mL | < 1 µg/mL | < 1 µg/mL | < 1 µg/mL | < 1 µg/mL | < 1 µg/mL | < 1 µg/mL | 8 to 16 µg/mL (≈ 10.1 to 20.2 µM)
11 | O=C(O)c1c(F)ccc2c1OB(O)[C@@H](NC(=O)[C@H](NC(=O)N1CCN(C3CCN(C(=O)Nc4cc(O)ccc4F)CC3)C1=O)c1cc(F)c(O)c(O)c1Cl)C2 (single isomer, unassigned) [Example 451] | > 5.00 | < 1 µg/mL | < 1 µg/mL | < 1 µg/mL | < 1 µg/mL | < 1 µg/mL | < 1 µg/mL | < 1 µg/mL | < 1 µg/mL | < 1 µg/mL
12 | O=C(O)c1c(F)ccc2c1OB(O)[C@@H](NC(=O)[C@H](NC(=O)N1CCN(C3CCN(C(=O)Nc4c(F)ccc(O)c4F)CC3)C1=O)c1cc(F)c(O)c(O)c1Cl)C2 (single isomer, unassigned) [Example 454] | > 5.00 | < 1 µg/mL | < 1 µg/mL | < 1 µg/mL | < 1 µg/mL | 2 to 4 µg/mL (≈ 2.47 to 4.95 µM) | < 1 µg/mL | 2 to 4 µg/mL (≈ 2.47 to 4.95 µM) | < 1 µg/mL | < 1 µg/mL
13 | O=C(O)c1c(F)ccc2c1OB(O)[C@@H](NC(=O)[C@H](NC(=O)N1CCN(C3CCN(C(=O)Nc4c(F)ccc(O)c4Cl)CC3)C1=O)c1cc(F)c(O)c(O)c1Cl)C2 (single isomer, unassigned) [Example 455] | > 5.00 | < 1 µg/mL | < 1 µg/mL | < 1 µg/mL | < 1 µg/mL | < 1 µg/mL | < 1 µg/mL | < 1 µg/mL | < 1 µg/mL | < 1 µg/mL
14 | O=C(O)c1c(F)ccc2c1OB(O)[C@@H](NC(=O)[C@H](NC(=O)N1CCN(C3CCN(C(=O)c4ccc(O)cc4)CC3)C1=O)c1cc(F)c(O)c(O)c1Cl)C2 (single isomer, unassigned) [Example 463] | > 5.00 | < 1 µg/mL | < 1 µg/mL | < 1 µg/mL | < 1 µg/mL | < 1 µg/mL | < 1 µg/mL | < 1 µg/mL | < 1 µg/mL | < 1 µg/mL
